Experimental data: patent USRE49517E1, “Pyrazoles” (Janssen Pharmaceuticals, Inc., priority 2014, dated 2023)
pIC50: −log10 of the molar value.

Target: human ERG receptor (Homo sapiens (Human), UniProt Q12809)
Test: HERGBD: inhibition of specific [3H]-Dofetilide binding to the hERG receptor
Settings: HEK cell membranes
Method: Inhibition of Specific Binding to the hERG—Receptor (HERGBD)
A HEK cell line with stable transfected human ERG receptor was used for the assay. The cells were grown adherently and maintained in DULBECCOS' MEM medium with 10% FBS, 1% non-essential amino acids, 1% Penicillin/Streptomycin and 400 μg/ml G418 (Calbiochem).
For binding assays and membrane preparations the cell culture medium was removed, cells were washed with PBS. Crude membranes for radioligand binding experiments were prepared by scraping the cells off the dishes in ice cold 20 mM HEPES/0.1 mM KCl/pH 7.2. […]
Binding was terminated by filtration of the incubated membrane preparations using Filtermat B (Pharmacia, Uppsala Sweden) and a Micro Cell Harvester (Skatron, Lier, Norway). The Filtermat B had been presoaked with 1% polyethylen imine and carefully washed with 0.05 M Tris/HCl-buffer pH=7.7 after the filtration to separate free and bound radioactivity. The filters were counted in a scintillation counter (Betaplate 1205, Berthold, Wildbad, Germany) in order to determine the specific binding of [^3H]-Dofetilide.
The optimal amount of membrane preparation in the assay was determined and optimized for each membrane preparation separately in front of using the membranes in compound testing. […]

human ERG receptor, sequence (Q12809 whole entry): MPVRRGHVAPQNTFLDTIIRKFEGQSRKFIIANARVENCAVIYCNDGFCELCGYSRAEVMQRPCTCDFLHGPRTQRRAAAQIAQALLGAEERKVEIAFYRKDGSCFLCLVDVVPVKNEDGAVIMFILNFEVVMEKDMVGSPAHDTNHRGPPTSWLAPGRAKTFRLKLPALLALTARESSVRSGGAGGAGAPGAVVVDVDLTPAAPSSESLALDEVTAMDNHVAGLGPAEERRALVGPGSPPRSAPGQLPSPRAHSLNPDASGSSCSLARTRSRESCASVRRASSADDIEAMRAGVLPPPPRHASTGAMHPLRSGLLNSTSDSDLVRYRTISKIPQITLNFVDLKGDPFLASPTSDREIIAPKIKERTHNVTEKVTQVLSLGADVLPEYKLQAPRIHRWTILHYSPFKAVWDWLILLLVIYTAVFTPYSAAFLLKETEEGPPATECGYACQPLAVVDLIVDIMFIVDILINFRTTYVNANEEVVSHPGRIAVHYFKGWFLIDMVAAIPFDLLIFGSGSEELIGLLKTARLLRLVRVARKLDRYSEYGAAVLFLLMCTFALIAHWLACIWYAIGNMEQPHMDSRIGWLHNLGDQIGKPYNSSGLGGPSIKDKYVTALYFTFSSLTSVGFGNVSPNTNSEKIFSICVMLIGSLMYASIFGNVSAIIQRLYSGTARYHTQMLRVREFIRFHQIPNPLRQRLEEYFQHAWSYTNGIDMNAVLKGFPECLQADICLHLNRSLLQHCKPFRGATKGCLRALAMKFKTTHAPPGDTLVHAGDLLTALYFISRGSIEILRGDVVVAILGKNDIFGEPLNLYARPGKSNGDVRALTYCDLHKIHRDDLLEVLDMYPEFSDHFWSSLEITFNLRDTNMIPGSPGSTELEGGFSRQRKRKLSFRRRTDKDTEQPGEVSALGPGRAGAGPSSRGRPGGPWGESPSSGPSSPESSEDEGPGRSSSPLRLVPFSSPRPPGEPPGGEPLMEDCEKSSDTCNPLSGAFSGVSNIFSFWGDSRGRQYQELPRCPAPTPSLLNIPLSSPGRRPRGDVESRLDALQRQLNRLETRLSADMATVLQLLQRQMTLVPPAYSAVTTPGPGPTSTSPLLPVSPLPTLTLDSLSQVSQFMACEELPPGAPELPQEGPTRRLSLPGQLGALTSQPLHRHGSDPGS

Row | Structure (SMILES) | pIC50
1 | Cn1ccc(Cn2cc(-c3cccc(C(F)(F)F)c3)cn2)n1 [Example 49, 1-methyl-3-[[4-[3-(trifluoromethyl)phenyl]pyrazol-1-yl]methyl]pyrazole] | 4.72
2 | Cc1cc(Cn2cc(-c3ccc(C(F)(F)F)cc3)cn2)n(C)n1 [Example 51, 1,3-Dimethyl-5-[[4-[4-(trifluoromethyl)phenyl]pyrazol-1-yl]methyl]-Pyrazole] | 3.86
